The experiment concerns the target electric eel cholinesterase (Type V) (Electrophorus electricus, UniProt O42275). Briefly: Inhibition of electric eel cholinesterase (Type V) by substituted benzoyl cholines (method of Rappaport et al.). The conditions noted are these: incubated with enzyme at room temperature (22°) for 40 minutes. It is filed as biochemical. The procedure:
As stated heretofore, the compounds of the present invention when tested for inhibition of eel cholinesterase show good activity at rather low concentrations. Inhibition of cholinesterase activity of generally recognized as having positive correlation which insecticidal activity.
INHIBITION OF ELECTRIC EEL CHOLINESTERASE (TYPE V)
BY SUBSTITUTED BENZOYL CHOLINES
Activity Measurement Method:
*Reagent incubated with enzyme at room temperature (22°) for 40

Setting [1] is: Bromomethyl- reagent type, concentration 10^-^4 M.
The mark [2] stands for this setting: Bromomethyl- reagent type, concentration 10^-^6 M.
[3] abbreviates: Formyl- reagent type, concentration 10^-^3 M.
[4] abbreviates: Formyl- reagent type, concentration 10^-^4 M.
The mark [5] stands for this setting: 40 min, Bromomethyl- reagent type, concentration 10^-^4 M.
Setting [6] is: 40 min, Formyl- reagent type, concentration 10^-^4 M.

Drawing on patent US3959351A, “Haloalkylbenzoyl esters of di-lower alkylamino alkanols and quaternary lower alkyl salts thereof” (priority 1972, dated 1976), this text covers INHIBITION and inhibition for 16 molecules.

SMILES strings stand for the structures.

Sequence of electric eel cholinesterase (Type V) (O42275 24-633): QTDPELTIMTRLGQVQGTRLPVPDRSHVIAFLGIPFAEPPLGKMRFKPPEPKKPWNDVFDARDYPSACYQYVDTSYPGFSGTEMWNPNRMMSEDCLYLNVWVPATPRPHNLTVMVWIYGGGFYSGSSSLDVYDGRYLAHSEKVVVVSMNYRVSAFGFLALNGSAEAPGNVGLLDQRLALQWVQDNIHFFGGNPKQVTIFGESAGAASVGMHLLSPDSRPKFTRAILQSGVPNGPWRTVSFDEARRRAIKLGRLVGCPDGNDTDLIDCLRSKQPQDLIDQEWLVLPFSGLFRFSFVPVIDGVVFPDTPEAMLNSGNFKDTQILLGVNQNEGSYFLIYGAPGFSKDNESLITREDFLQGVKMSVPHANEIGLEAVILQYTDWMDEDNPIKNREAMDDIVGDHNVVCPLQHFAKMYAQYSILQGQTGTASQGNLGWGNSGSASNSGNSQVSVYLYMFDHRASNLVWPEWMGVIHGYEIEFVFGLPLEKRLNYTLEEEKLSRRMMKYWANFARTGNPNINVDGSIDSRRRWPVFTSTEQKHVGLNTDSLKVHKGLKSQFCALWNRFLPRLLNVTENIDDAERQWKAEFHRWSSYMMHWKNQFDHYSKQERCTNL

With `C[N+](C)(C)CCOC(=O)c1ccc(CBr)cc1.[I-]` [para Bromomethyl-, para-bromomethyl benzoyl choline iodide], the INHIBITION entry under setting [1] is reported as “Complete” and the INHIBITION entry under setting [2] is recorded as “None”.

Consider `C[N+](C)(C)CCOC(=O)c1ccccc1C=O.[I-]` [ortho Formyl-, o-formylbenzoyl choline iodide], for which the INHIBITION entry reads like this: under setting [3], “None”; under setting [4], “None”.

As for `C[N+](C)(C)CCOC(=O)c1ccc(C=O)cc1.[Br-]` [para Formyl-, p-Formyl benzoyl choline bromide], the INHIBITION entry under setting [3] is on record as “Complete” and the INHIBITION result under setting [4] is “None”.

A word on the inhibition: it is the percentage by which the read-out fell short of the control. Regarding `C[N+](C)(C)CCOC(=O)c1cc(CBr)cc(CBr)c1.[I-]` [3,5 Bromomethyl-, 3,5-di(bromomethyl)benzoyl choline iodide], the inhibition at 100 µM under setting [5] worked out at 90%. Besides, the INHIBITION entry under setting [2] is reported as “None”.

In turn, `C[N+](C)(C)CCOC(=O)c1cccc(C=O)c1.[I-]` [meta Formyl-, m-formylbenzoyl choline iodide] displayed an inhibition at 1000 µM (40 min, Formyl- reagent type, concentration 10^-^3 M) of 60%. Besides, the INHIBITION result under setting [4] is “None”.

Turning to `C[N+](C)(C)CCOC(=O)c1cccc(CBr)c1CBr.[I-]` [2,3 Bromomethyl-, 2,3-di(bromomethyl)benzoyl choline iodide], the inhibition at 100 µM under setting [5] is 40%. Besides, the INHIBITION entry under setting [2] is recorded as “None”.

The molecule `C[N+](C)(C)CCOC(=O)c1cc(C=O)ccc1C=O.[I-]` [2,5 Formyl-, 2,5-diformylbenzoyl choline iodide] showed an inhibition at 100 µM under setting [6] of 50%. Besides, under setting [3], the INHIBITION entry is given as “Complete”.

Under setting [5], `C[N+](C)(C)CCOC(=O)c1cc(CBr)ccc1CBr.[I-]` [2,5 Bromomethyl-, 2,5-di(bromomethyl)benzoyl choline iodide] returned an inhibition at 100 µM of 80%. Under setting [2], the INHIBITION result is listed as “None”.

Turning to `C[N+](C)(C)CCOC(=O)c1cccc(CBr)c1.[I-]` [meta Bromomethyl-, m-bromomethyl benzoyl choline iodide], the INHIBITION entry runs as follows: under setting [1], “None”; under setting [2], “None”.

`C[N+](C)(C)CCOC(=O)c1ccc(CBr)cc1CBr.[I-]` [2,4 Bromomethyl-, 2,4-di(bromomethyl)benzoyl choline iodide]: the INHIBITION entry runs as follows: under setting [1], “Complete”; under setting [2], “None”.

As to `C[N+](C)(C)CCOC(=O)c1ccc(C=O)cc1C=O.[I-]` [2,4 Formyl-, 2,4-diformylbenzoyl choline iodide], under setting [6], the inhibition at 100 µM turned out to be 50%. Moreover, the INHIBITION entry under setting [3] is “Complete”.

`C[N+](C)(C)CCOC(=O)c1cccc(C=O)c1C=O.[I-]` [2,3 Formyl-, 2,3-diformylbenzoyl choline iodide] came in with an inhibition at 100 µM under setting [6] of 50%. Further, the INHIBITION result under setting [3] is listed as “Complete”.

Take `C[N+](C)(C)CCOC(=O)c1cc(C=O)cc(C=O)c1.[I-]` [3,5 Formyl-, 3,5-diformylbenzoyl choline iodide]: the INHIBITION entry by setting is: under setting [3], “Complete”; under setting [4], “Complete”.

Molecule `C[N+](C)(C)CCOC(=O)c1ccc(CBr)c(CBr)c1` [3,4 Bromomethyl-, 3,4-di(bromomethyl)benzoyl choline iodide] gave an inhibition at 100 µM under setting [5] of 90%. Under “40 min, Bromomethyl- reagent type, concentration 10^-^6 M”, the inhibition at 1 µM was 30%.

Under setting [6], `C[N+](C)(C)CCOC(=O)c1ccc(C=O)c(C=O)c1.[I-]` [3,4 Formyl-, 3,4-diformylbenzoyl choline iodide] registered an inhibition at 100 µM of 25%. For the same molecule, the INHIBITION result under setting [3] is given as “Complete”.

Take `C[N+](C)(C)CCOC(=O)c1ccccc1CBr.[I-]` [ortho Bromomethyl-, o-bromomethyl benzoyl choline iodide]: the INHIBITION entry reads like this: under setting [1], “None”; under setting [2], “None”.
